Data published in PubChem BioAssay (NCI).
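48-hour exposure; five concentrations; linearly interpolated endpoints. GI50 = concentration required for 50% inhibition of growth. At the TGI there is no net growth.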

Assays:
Assay in all cases: growth of human tumour cells (NCI), 48 h
[1] = test system: KM12 colon
[2] = test system: SF-268 CNS
[3] = test system: SK-MEL-2 melanoma
[4] = test system: MDA-MB-231 breast
[5] = test system: 786-0 renal
[6] = test system: UACC-62 melanoma
[7] = test system: SNB-19 CNS
[8] = test system: NCI-H522 lung
[9] = test system: TK-10 renal
[10] = test system: HOP-62 NSCLC
[11] = test system: OVCAR-5 ovarian
[12] = test system: MOLT-4 leukemia
[13] = test system: MDA-MB-435
[14] = test system: SNB-75 CNS
[15] = test system: HCT-116 colon
[16] = test system: DU-145 prostate
[17] = test system: SK-OV-3 ovarian
[18] = test system: A498 renal
[19] = test system: SK-MEL-5 melanoma
[20] = test system: K-562 leukemia
[21] = test system: NCI-H226 lung
[22] = test system: HL-60(TB) leukemia
[23] = test system: SW-620 colon
[24] = test system: UACC-257 melanoma
[25] = test system: BT-549 breast
[26] = test system: RPMI-8226 leukemia
[27] = test system: IGROV1 ovarian
[28] = test system: HCT-15 colon
[29] = test system: OVCAR-4 ovarian
[30] = test system: OVCAR-8 ovarian
[31] = test system: LOX IMVI melanoma
[32] = test system: NCI/ADR-RES ovarian
[33] = test system: CAKI-1 renal
[34] = test system: RXF 393 renal
[35] = test system: NCI-H460 lung
[36] = test system: SK-MEL-28 melanoma
[37] = test system: SN12C renal
[38] = test system: SF-539 CNS
[39] = test system: NCI-H23 lung
[40] = test system: U251 CNS
[41] = test system: HS 578T breast
[42] = test system: M14 melanoma
[43] = test system: EKVX NSCLC
[44] = test system: COLO 205 colon
[45] = test system: SF-295 CNS
[46] = test system: A549 NSCLC
[47] = test system: SR leukemia
[48] = test system: HT29 colon
[49] = test system: MCF7 breast
[50] = test system: HOP-92 NSCLC
[51] = test system: ACHN renal
[52] = test system: OVCAR-3 ovarian
[53] = test system: UO-31 renal
[54] = test system: PC-3 prostate

Question: What does the source list for CCOC(=O)c1c(C)n(Cc2ccccc2)c2c1cc1oc(=O)c(=O)n3cnc2c13?
Answer: GI50 [1]: 19.2 µM; TGI [1]: > 50 µM; GI50 [2]: 15.3 µM; TGI [2]: > 50 µM; GI50 [3]: > 50 µM; TGI [3]: > 50 µM; GI50 [4]: 13 µM; TGI [4]: > 50 µM; GI50 [5]: 13.7 µM; TGI [5]: > 50 µM; GI50 [6]: 16.6 µM; TGI [6]: > 50 µM; GI50 [7]: 42.4 µM; TGI [7]: > 50 µM; GI50 [8]: > 50 µM; TGI [8]: > 50 µM; GI50 [9]: 15.7 µM; TGI [9]: 42.6 µM; GI50 [10]: 29.4 µM; TGI [10]: > 50 µM; GI50 [11]: 36.9 µM; TGI [11]: > 50 µM; GI50 [12]: 8.47 µM; TGI [12]: > 50 µM; GI50 [13]: 10.7 µM; TGI [13]: 32.9 µM; GI50 [14]: 28.5 µM; TGI [14]: > 50 µM; GI50 [15]: 7.36 µM; TGI [15]: 15.3 µM; GI50 [16]: 11.8 µM; TGI [16]: > 50 µM; GI50 [17]: > 50 µM; TGI [17]: > 50 µM; GI50 [18]: 11 µM; TGI [18]: 49.8 µM; GI50 [19]: 10.4 µM; TGI [19]: 26.7 µM; GI50 [20]: 12.9 µM; TGI [20]: > 50 µM; GI50 [21]: 20.3 µM; TGI [21]: > 50 µM; GI50 [22]: 14.5 µM; TGI [22]: > 50 µM; GI50 [23]: 14.1 µM; TGI [23]: 34.7 µM; GI50 [24]: 17 µM; TGI [24]: 48.3 µM; GI50 [25]: 16.2 µM; TGI [25]: 34.2 µM; GI50 [26]: 1.86 µM; TGI [26]: 14.1 µM; GI50 [27]: 28.1 µM; TGI [27]: > 50 µM; GI50 [28]: 16.2 µM; TGI [28]: > 50 µM; GI50 [29]: 19.8 µM; TGI [29]: > 50 µM; GI50 [30]: 22.8 µM; TGI [30]: > 50 µM; GI50 [31]: 8.74 µM; TGI [31]: 22.3 µM; GI50 [32]: 18.5 µM; TGI [32]: > 50 µM; GI50 [33]: 14.7 µM; TGI [33]: 48.8 µM; GI50 [34]: 16 µM; TGI [34]: > 50 µM; GI50 [35]: 15.9 µM; TGI [35]: > 50 µM; GI50 [36]: 40.4 µM; TGI [36]: > 50 µM; GI50 [37]: 10.4 µM; TGI [37]: 24.9 µM; GI50 [38]: 14.5 µM; TGI [38]: 37.8 µM; GI50 [39]: 14.4 µM; TGI [39]: > 50 µM; GI50 [40]: 12 µM; TGI [40]: > 50 µM; GI50 [41]: 34.3 µM; TGI [41]: > 50 µM; GI50 [42]: 18.3 µM; TGI [42]: > 50 µM; GI50 [43]: 13 µM; TGI [43]: 39.7 µM; GI50 [44]: 12.8 µM; TGI [44]: 30.6 µM; GI50 [45]: 16.2 µM; TGI [45]: > 50 µM; GI50 [46]: 13.6 µM; TGI [46]: 45.7 µM; GI50 [47]: 7.99 µM; TGI [47]: > 50 µM; GI50 [48]: 18.3 µM; TGI [48]: > 50 µM; GI50 [49]: 17.7 µM; TGI [49]: > 50 µM; GI50 [50]: 2.83 µM; TGI [50]: 20.1 µM; GI50 [51]: 9.91 µM; TGI [51]: 39.9 µM; GI50 [52]: 12.3 µM; TGI [52]: 34.7 µM; GI50 [53]: 25.6 µM; TGI [53]: > 50 µM; GI50 [54]: 10.3 µM; TGI [54]: > 50 µM
